Publication PMC3265452 (PLoS Neglected Tropical Diseases, 2012)
Counter-ions that a name gives are not always drawn.

Target: AaDOP2 (Aedes aegypti, UniProt H6D5H2)
Assay: AaDOP2 antagonist screen of the LOPAC1280 library (HEK-CRELuc-Aadop2 cells, luminescence)
Format: cell-based
Conditions: not given

Sequence of AaDOP2 (H6D5H2 1-476): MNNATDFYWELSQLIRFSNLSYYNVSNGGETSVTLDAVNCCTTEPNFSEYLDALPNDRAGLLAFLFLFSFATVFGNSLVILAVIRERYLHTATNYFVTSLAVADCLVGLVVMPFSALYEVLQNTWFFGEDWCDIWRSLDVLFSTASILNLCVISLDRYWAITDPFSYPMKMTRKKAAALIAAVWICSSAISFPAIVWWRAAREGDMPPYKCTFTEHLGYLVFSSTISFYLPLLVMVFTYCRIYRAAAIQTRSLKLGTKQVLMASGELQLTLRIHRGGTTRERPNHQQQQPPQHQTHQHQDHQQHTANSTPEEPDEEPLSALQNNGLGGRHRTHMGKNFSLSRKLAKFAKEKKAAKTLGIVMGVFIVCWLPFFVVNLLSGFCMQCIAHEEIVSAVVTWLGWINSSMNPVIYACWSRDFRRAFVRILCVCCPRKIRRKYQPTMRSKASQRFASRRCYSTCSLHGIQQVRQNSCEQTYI

| Structure (SMILES) | Compound effect (percent receptor signaling in presence of test compound, relative lux units relative to the SCH23390 control) |
| --- | --- |
| CC(=O)[C@H]1CC[C@H]2[C@@H]3CC[C@H]4C[C@H](O)CC[C@]4(C)[C@H]3CC[C@]12C [Compound 989, 5alpha-Pregnan-3alpha-ol-20-one] | 73 |
| CC(C)[N+](C)(CCOC(=O)C1c2ccccc2Oc2ccccc21)C(C)C [Compound 990, Propantheline bromide] | 71 |
| O=S(=O)(O)C1CCNCC1 [Compound 991, Piperidine-4-sulphonic acid] | 105 |
| NC[C@@H]1O[C@H](O[C@H]2[C@@H](O)[C@H](O[C@@H]3[C@@H](O)[C@H](N)C[C@H](N)[C@H]3O[C@H]3O[C@H](CO)[C@@H](O)[C@H](O)[C@H]3N)O[C@@H]2CO)[C@H](N)[C@@H](O)[C@@H]1O [Compound 994, Paromomycin sulfate] | 96 |
| O.c1cnc2c(c1)ccc1cccnc12 [Compound 995, 1,10-Phenanthroline monohydrate] | 95 |
| CCN(CC)CCNC(=O)c1ccc(N)cc1 [Compound 996, Procainamide hydrochloride] | 100 |
| CCCNC(C)C(=O)Nc1ccccc1C (centres unmarked) [Compound 997, Prilocaine hydrochloride] | 95 |
| CCCn1cnc2c1c(=O)n(CCCCC(C)=O)c(=O)n2C [Compound 998, Propentofylline] | 87 |
| CCCNC[C@H](O)COc1ccccc1C(=O)CCc1ccccc1.Cl [Compound 999, (S)-(-)-propafenone hydrochloride] | 77 |
| CN(C)C(=O)Oc1ccc[n+](C)c1 [Compound 1000, Pyridostigmine bromide] | 106 |
| CCN(CC)CCOC(=O)c1ccc(N)cc1 [Compound 1001, Procaine hydrochloride] | 96 |
| Nc1nc(Nc2ccccc2)nc2c1ncn2[C@@H]1O[C@H](CO)[C@@H](O)[C@H]1O [Compound 1002, 2-Phenylaminoadenosine] | 106 |
| OC[C@H]1O[C@@H](n2cnc3c(NCCc4ccccc4)ncnc32)[C@H](O)[C@@H]1O [Compound 1007, N6-2-Phenylethyladenosine] | 104 |
| OC[C@H]1O[C@@H](n2cnc3c(Nc4ccccc4)ncnc32)[C@H](O)[C@@H]1O [Compound 1008, N6-Phenyladenosine] | 99 |
| NCC(CP(=O)(O)O)c1ccc(Cl)cc1 (centres unmarked) [Compound 1009, Phaclofen] | 71 |
| N=C(N)NC(=N)Nc1ccccc1 [Compound 1011, 1-Phenylbiguanide] | 81 |
| CN/C(=N\c1ccc(C2=NNC(=O)CC2C)cc1)NC#N (centres unmarked) [Compound 1012, SKF 94836] | 72 |
| Cc1nc2ccccn2c(=O)c1CCN1CCC(C(=O)c2ccc(F)cc2)CC1 [Compound 1013, Pirenperone] | 10 |
| COc1cc(OC)c(C=C2C(O)=Nc3ccccc32)c(OC)c1 [Compound 1014, IC 261] | 78 |
| CC(C)NC[C@H](O)COc1cccc2[nH]ccc12 [Compound 1015, S(-)-Pindolol] | 87 |

| Structure (SMILES) | Compound effect (percent receptor signaling in presence of test compound, relative lux units relative to the SCH23390 control) |
| --- | --- |
| CC(N/C(=N\C#N)Nc1ccncc1)C(C)(C)C (centres unmarked) [Compound 1016, Pinacidil] | 89 |
| CC(=O)[C@H]1CC[C@H]2[C@@H]3CC=C4C[C@@H](OS(=O)(=O)[O-])CC[C@]4(C)[C@H]3CC[C@]12C.[Na+] [Compound 1017, Pregnenolone sulfate sodium] | 107 |
| NC(=Nc1ccccc1)NC(=O)c1nc(Cl)c(N)nc1N [Compound 1020, Phenamil methanesulfonate] | 46 |
| COc1cccc(-c2cc(=O)c3ccccc3o2)c1N [Compound 1023, PD 98,059] | 94 |
| Cc1cccc(C(=O)NCN2CCN(c3ccccc3C#N)CC2)c1.O=C(O)/C=C\C(=O)O [Compound 1025, PD 168,077 maleate] | 91 |
| CN(C)S(=O)(=O)c1ccc2c(c1)/C(=C/c1cc3c([nH]1)CCCC3)C(=O)N2 [Compound 1026, SU 6656] | 65 |
| O=C(O)c1cccnc1C(=O)O [Compound 1027, Quinolinic acid] | 83 |
| O=c1c(O)c(-c2ccc(O)c(O)c2)oc2cc(O)cc(O)c12 [Compound 1028, Quercetin dihydrate] | 34 |
| C=C[C@H]1C[N@@]2CC[C@H]1C[C@@H]2[C@@H](O)c1ccnc2ccc(OC)cc12 [Compound 1029, Quinidine sulfate] | 69 |
| O=C(O)/C=C\C(=O)O.O=C(O)/C=C\C(=O)O.c1ccc2nc(N3CCNCC3)ccc2c1 [Compound 1030, Quipazine dimaleate] | 71 |
| C=C[C@H]1C[N@@]2CC[C@H]1C[C@H]2[C@H](O)c1ccnc2ccc(OC)cc12 [Compound 1031, Quinine sulfate] | 79 |
| N[C@@H](Cn1oc(=O)[nH]c1=O)C(=O)O [Compound 1032, (+)-Quisqualic acid] | 80 |
| CCN(CC)CCCC(C)Nc1c2ccc(Cl)cc2nc2ccc(OC)cc12 (centres unmarked) [Compound 1033, Quinacrine dihydrochloride] | 94 |
| C[C@@H]1C(=O)NC2=Nc3cccc(Cl)c3CN21 [Compound 1034, Quazinone] | 108 |
| C[C@]12CCC(=O)C=C1CC[C@@H]1[C@@H]2CC[C@@]2(C)[C@H]1CC[C@]2(O)C(=O)CO [Compound 1040, Cortexolone] | 99 |
| CC(NCCc1ccc(O)cc1)C(O)c1ccc(O)cc1 (centres unmarked) [Compound 1041, Ritodrine hydrochloride] | 119 |
| O=C(c1ccc(OCCN2CCCCC2)cc1)c1c(-c2ccc(O)cc2)sc2cc(O)ccc12 [Compound 1042, Raloxifene hydrochloride] | 103 |
| CC1=C(/C=C/C(C)=C/C=C/C(C)=C/C(=O)O)C(C)(C)CCC1 [Compound 1043, Retinoic acid] | 106 |
| N.N.N.N.N.N.N.N.N.N.N.N.N.N.[Cl-].[Cl-].[Cl-].[Cl-].[Cl-].[Cl-].[O-2].[O-2].[Ru+3].[Ru+3].[Ru+4] [Compound 1044, Ruthenium red] | 61 |

Same assay, conditions: 10 µM compound, 300 nM dopamine, 2 hr; hit = compound effect <20

| Structure (SMILES) | Compound effect (percent receptor signaling in presence of test compound, relative lux units relative to the SCH23390 control) |
| --- | --- |
| O=C(O)/C=C\C(=O)O.c1cnc(N2CCN(Cc3ccc4c(c3)OCO4)CC2)nc1 [Compound 993, Piribedil maleate] | 120% |
| CCCN1CCC[C@H](c2cccc(O)c2)C1.Cl [Compound 1003, R(+)-3PPP hydrochloride] | 86% |
| CCCN1CCC[C@@H](c2cccc(O)c2)C1.Cl [Compound 1004, S(-)-3PPP hydrochloride] | 89% |
| Cl.NCC#Cc1ccccc1 [Compound 1006, 3-Phenylpropargylamine hydrochloride] | 91% |
| Cc1nc(N=Nc2ccc(S(=O)(=O)O)cc2S(=O)(=O)O)c(COP(=O)(O)O)c(C=O)c1O [Compound 1018, PPADS] | 103% |
| CCCN1CCO[C@@H]2c3cc(O)ccc3OC[C@H]21.Cl [Compound 1019, S(+)-PD 128,907 hydrochloride] | 89% |
| O=C([O-])CCC(NC(=O)c1ccccc1C(=O)[O-])C(=O)[O-].[Na+].[Na+].[Na+] [Compound 1022, Phthalamoyl-L-glutamic acid trisodium] | 97% |
| CN1CCN(c2ccc3ccccc3n2)CC1.O=C(O)/C=C\C(=O)O.O=C(O)/C=C\C(=O)O [Compound 1036, Quipazine, N-methyl-, dimaleate] | 74% |
| O=C(O)/C=C\C(=O)O.O=[N+]([O-])c1ccc2nc(N3CCNCC3)ccc2c1 [Compound 1037, Quipazine, 6-nitro-, maleate] | 92% |
| CCCN1CCC[C@@H]2Cc3nc(N)ncc3C[C@H]21 [Compound 1038, Quinelorane dihydrochloride] | 99% |

Same assay, conditions: read-out: % of the SCH23390 effect (percent inhibition of receptor response relative to the SCH23390 control)

| Structure (SMILES) | inhibition at 10 µM |
| --- | --- |
| Cc1nc2ccccn2c(=O)c1CCN1CCC(C(=O)c2ccc(F)cc2)CC1 [Compound 1013, Pirenperone] | 90% |
